# Source: patent publication US9573954B2, “Pyrazolopyrimidine compounds” (University Health Network, priority 2012, dated 2017)
# Biological target: T1, human TTK (Homo sapiens, UniProt P33981)
# T1 construct: Active TTK was purchased from Invitrogen as an amino terminal GST fusion of full length human TTK; purchased Invitrogen
# T1 sequence (P33981 1-857): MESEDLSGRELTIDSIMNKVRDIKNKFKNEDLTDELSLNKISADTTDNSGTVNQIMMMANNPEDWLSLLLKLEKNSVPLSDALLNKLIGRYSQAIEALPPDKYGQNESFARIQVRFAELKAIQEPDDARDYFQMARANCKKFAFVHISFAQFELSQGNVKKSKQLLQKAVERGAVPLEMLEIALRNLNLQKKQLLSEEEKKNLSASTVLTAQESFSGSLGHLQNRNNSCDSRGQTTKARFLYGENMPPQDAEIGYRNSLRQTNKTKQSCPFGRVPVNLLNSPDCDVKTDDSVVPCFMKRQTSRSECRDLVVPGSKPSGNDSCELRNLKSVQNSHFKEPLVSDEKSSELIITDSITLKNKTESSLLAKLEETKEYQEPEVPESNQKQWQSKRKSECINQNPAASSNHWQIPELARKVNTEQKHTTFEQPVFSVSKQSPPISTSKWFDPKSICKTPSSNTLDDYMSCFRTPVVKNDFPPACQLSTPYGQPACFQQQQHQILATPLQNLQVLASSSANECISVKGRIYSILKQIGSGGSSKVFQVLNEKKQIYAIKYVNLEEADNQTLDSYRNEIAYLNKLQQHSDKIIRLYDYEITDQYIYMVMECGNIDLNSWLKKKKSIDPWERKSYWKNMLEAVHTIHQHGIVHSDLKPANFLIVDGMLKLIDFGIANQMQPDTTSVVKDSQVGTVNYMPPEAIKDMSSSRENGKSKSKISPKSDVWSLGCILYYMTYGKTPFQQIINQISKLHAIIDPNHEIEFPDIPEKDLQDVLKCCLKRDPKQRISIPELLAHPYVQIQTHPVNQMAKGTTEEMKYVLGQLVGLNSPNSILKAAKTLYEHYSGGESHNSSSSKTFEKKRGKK
# Test: TTK inhibition assay (indirect ELISA)
# Type: biochemical
# Conditions: 16 μM ATP (Sigma cat# A7699); read-out: TTK IC50 Range (denoted with an asterisk)
# Method: Active TTK was purchased from Invitrogen as an amino terminal GST fusion of full length human TTK.
# TTK activity was measured using an indirect ELISA detection system.
# Compounds were pre-incubated in the presence of enzyme for 5 minutes prior to addition of ATP and the activity remaining quantified using the above described activity assay. The % Inhibition of a compound was determined using the following formula; % Inhibition=100×(1−(experimental value−background value)/(high activity control−background value)). The IC50 value was determined using a non-linear 4 point logistic curve fit (XLfit4, IDBS) with the formula; (A+(B/(1+((x/C)^D)))), where A=background value, B=range, C=inflection point, D=curve fit parameter.
row,SMILES,IC50 [nM]
1,CC(C)NC(=O)c1ccc(-c2cnn3c(NCC4CCOCC4)nc(OC4CCCC4)nc23)cc1 [Example C4],100 to 500
2,CN(c1nc(NCC2CCOCC2)n2ncc(-c3ccc(C(=O)NC4CC4)c(F)c3)c2n1)C1CCCCC1 [Example C15],< 100
3,O=C(NC1CC1)c1ccc(-c2cnn3c(NCC4CCOCC4)nc(N4CCCCC4)nc23)cc1Cl [Example C16],< 100
4,Cc1cc(-c2cnn3c(NCC4CCOCC4)nc(NC4CCCC4)nc23)ccc1NC(=O)C1CC1 [Example C18],> 500

# Further lines, results first:
row,IC50 [nM],SMILES
1,< 100,"O=C(NC1CC1)c1ccc(-c2cnn3c(NCCCN4CCOCC4)nc(Oc4ccccc4)nc23)cc1 [Example C1, N-cyclopropyl-4-(4-((3-morpholinopropyl)amino)-2-phenoxypyrazolo[1,5-a][1,3,5]triazin-8-yl)benzamide]"
2,100 to 500,CC(C)NC(=O)c1ccc(-c2cnn3c(NCC4CCOCC4)nc(Oc4ccccc4)nc23)cc1 [Example C2]
3,> 500,CC(C)C(=O)Nc1ccc(-c2cnn3c(NCC4CCOCC4)nc(Oc4ccccc4)nc23)cc1 [Example C3]
4,< 100,COCCNc1nc(Oc2ccccc2)nc2c(-c3ccc(C(=O)NC4CC4)cc3)cnn12 [Example C6]
5,> 500,Cc1cc(-c2cnn3c(NCC4CCOCC4)nc(Oc4ccccc4)nc23)ccc1NC(=O)C1CC1 [Example C17]

# Same assay, conditions: 100 μM ATP; read-out: TTK IC50 Range
row,SMILES,IC50 [nM]
1,"Cc1cc(-c2cnn3c(NCC4CCOCC4)cc(NC[C@@H]4CCCO4)nc23)ccc1C(=O)NC1CC1 [Example C29, (S)-N-cyclopropyl-2-methyl-4-(7-(((tetrahydro-2H-pyran-4-yl)methyl)amino)-5-(((tetrahydrofuran-2-yl)methyl)amino)pyrazolo[1,5-a]pyrimidin-3-yl)benzamide]",< 100
2,Cc1cc(-c2cnn3c(NCCN4CCOCC4)cc(NC4CCOCC4)nc23)ccc1C(=O)NC1CC1 [Example C53],< 100
3,Cc1cc(-c2cnn3c(NC[C@H]4CCCO4)cc(NC4CCOCC4)nc23)ccc1C(=O)NC1CC1 [Example C63],< 100
4,Cc1cc(-c2cnn3c(NC[C@@H]4CCCO4)cc(NC4CCCC4)nc23)ccc1C(=O)NC1CC1 [Example C64],< 100
5,Cc1cc(-c2cnn3c(NC[C@@H]4CCCO4)cc(NC4CCOCC4)nc23)ccc1C(=O)NC1CC1 [Example C65],< 100
6,Cc1cc(-c2cnn3c(NCC4CCOCC4)cc(N4CCC(O)CC4)nc23)ccc1C(=O)NC1CC1 [Example C67],< 100
7,Cc1cc(-c2cnn3c(NCC4CCOCC4)cc(N4CC(O)C4)nc23)ccc1C(=O)NC1CC1 [Example C69],100 to 500
8,CC(=O)N1CCN(c2cc(NCC3CCOCC3)n3ncc(-c4ccc(C(=O)NC5CC5)c(C)c4)c3n2)CC1 [Example C84],< 100
9,Cc1cc(-c2cnn3c(NCC4(CO)CCOCC4)cc(NC4CCOCC4)nc23)ccc1C(=O)NC1CC1 [Example C93],< 100
10,Cc1cc(-c2cnn3c(NCC4CCOCC4)cc(N4C5CCC4COC5)nc23)ccc1C(=O)NC1CC1 [Example C112],< 100
11,Cc1cc(-c2cnn3c(NCC4CCOCC4)cc(OC4CCN(C5COC5)CC4)nc23)ccc1C(=O)NC1CC1 [Example C115],< 100

# More lines, now with the values ahead:
row,IC50 [nM],SMILES
1,> 500,Cc1cc(-c2cnn3c(NCC4CCOCC4)cc(Oc4ccncc4)nc23)ccc1C(=O)NC1CC1 [Example C50]
2,< 100,Cc1cc(-c2cnn3c(NCCN4CCOCC4)cc(Nc4ccccc4)nc23)ccc1C(=O)NC1CC1 [Example C60]
3,< 100,Cc1cc(-c2cnn3c(NCCCn4ccnc4)cc(NC4CCCC4)nc23)ccc1C(=O)NC1CC1 [Example C70]
4,< 100,Cc1cc(-c2cnn3c(NCC4CCOCC4)cc(NCc4ccccn4)nc23)ccc1C(=O)NC1CC1 [Example C73]
5,< 100,Cc1cc(-c2cnn3c(NCCN4CCOCC4)cc(NCc4cccnc4)nc23)ccc1C(=O)NC1CC1 [Example C75]
6,< 100,Cc1cc(-c2cnn3c(NCCN4CCOCC4)cc(NCC4CC4)nc23)ccc1C(=O)NC1CC1 [Example C76]
7,< 100,COCCNc1cc(NC2CCCC2)nc2c(-c3ccc(C(=O)NC4CC4)c(C)c3)cnn12 [Example C80]
8,< 100,Cc1cc(-c2cnn3c(NCCO)cc(NC4CCCC4)nc23)ccc1C(=O)NC1CC1 [Example C81]
9,100 to 500,Cc1cc(-c2cnn3c(NCCN4CCOCC4)cc(Oc4cccc(S(C)(=O)=O)c4)nc23)ccc1C(=O)NC1CC1 [Example C86]
10,< 100,Cc1cc(-c2cnn3c(NCCN4CCOCC4)cc(Oc4cccc(N5CCOCC5)c4)nc23)ccc1C(=O)NC1CC1 [Example C91]
11,100 to 500,Cc1cc(-c2cnn3c(NCCN4CCOCC4)cc(OC4COC4)nc23)ccc1C(=O)NC1CC1 [Example C101]
12,< 100,Cc1cc(-c2cnn3c(NCC4CCOCC4)cc(NC4COC4)nc23)ccc1C(=O)NC1CC1 [Example C102]
13,100 to 500,Cc1cc(-c2cnn3c(NCC4(N(C)C)CCOCC4)cc(Oc4ccccc4)nc23)ccc1C(=O)NC1CC1 [Example C106]
14,< 100,Cc1cc(-c2cnn3c(NCC4CCOCC4)cc(NC(CO)CO)nc23)ccc1C(=O)NC1CC1 [Example C110]
15,< 100,Cc1cc(-c2cnn3c(NCC4CCOCC4)cc(OCCN4CCOCC4)nc23)ccc1C(=O)NC1CC1 [Example C117]

# Same assay, conditions: Table 1; 16 μM ATP (asterisk); read-out: TTK IC50 Range
row,IC50 [nM],SMILES
1,100 to 500,"Cc1cc(-c2cnn3c(NCC4CCOCC4)nc(N(C)C)nc23)ccc1C(=O)NC1CC1 [Example A1, N-Cyclopropyl-4-(2-(dimethylamino)-4-(((tetrahydro-2H-pyran-4-yl)methyl)amino)pyrazolo[1,5-a][1,3,5]triazin-8-yl)-2-methylbenzamide]"
2,> 500,"O=C(NC1CC1)c1ccc(-c2cnn3c(NCCN4CCOCC4)nc(N4CCC(O)CC4)nc23)cc1 [Example A9, N-cyclopropyl-4-(2-(4-hydroxypiperidin-1-yl)-4-((2-morpholinoethyl)amino)pyrazolo[1,5-a][1,3,5]triazin-8-yl)benzamide]"

# Same assay, conditions: Table 2; 16 μM ATP (asterisk); read-out: TTK IC50 Range
row,SMILES,IC50 [nM]
1,"Cc1cc(-c2cnn3c(NCC4CCOCC4)cc(NC4CCCC4)nc23)ccc1NC(=O)C1CC1 [Example B15, N-(4-(5-(cyclopentylamino)-7-(((tetrahydro-2H-pyran-4-yl)methyl)amino)pyrazolo[1,5-a]pyrimidin-3-yl)-2-methylphenyl)cyclopropanecarboxamide]",> 500
2,"CC[C@H](Nc1cc(NCC2CCOCC2)n2ncc(-c3ccc(C(=O)NC4CC4)c(C)c3)c2n1)[C@H](C)O [Example B30, N-cyclopropyl-4-(5-(((2S,3S)-2-hydroxypentan-3-yl)amino)-7-(((tetrahydro-2H-pyran-4-yl)methyl)amino)pyrazolo[1,5-a]pyrimidin-3-yl)-2-methylbenzamide]",< 100
3,"Cc1cc(-c2cnn3c(NC[C@H]4CC[C@H](O)CC4)cc(NC4CCOCC4)nc23)ccc1C(=O)NC1CC1 [Example B33, N-cyclopropyl-4-(7-((((1r,4r)-4-hydroxycyclohexyl)-methyl)amino)-5-((tetrahydro-2H-pyran-4-yl)amino)pyrazolo[1,5-a]pyrimidin-3-yl)-2-methylbenzamide]",< 100

# The remaining lines, values ahead:
row,IC50 [nM],SMILES
1,< 100,"COCCNc1cc(Oc2cccnc2)nc2c(-c3ccc(C(=O)NC4CC4)cc3)cnn12 [Example B4, N-cyclopropyl-4-(7-((2-methoxyethyl)amino)-5-(pyridin-3-yloxy)pyrazolo[1,5-a]pyrimidin-3-yl)benzamide]"
2,< 100,"Cc1cc(-c2cnn3c(NCC(C)(C)O)cc(Oc4ccccc4)nc23)ccc1C(=O)NC1CC1 [Example B27, N-cyclopropyl-4-(7-((2-hydroxy-2-methylpropyl)amino)-5-phenoxypyrazolo[1,5-a]pyrimidin-3-yl)-2-methylbenzamide]"
3,< 100,"Cc1cc(-c2cnn3c(NCC(C)(C)O)cc(Oc4cccnc4)nc23)ccc1C(=O)NC1CC1 [Example B28, N-cyclopropyl-4-(7-((2-hydroxy-2-methylpropyl)amino)-5-(pyridin-3-yloxy)pyrazolo[1,5-a]pyrimidin-3-yl)-2-methylbenzamide]"
4,< 100,"Cc1cc(-c2cnn3c(NCC(C)(C)O)cc(NC4CCOCC4)nc23)ccc1C(=O)NC1CC1 [Example B32, N-cyclopropyl-4-(7-((2-hydroxy-2-methylpropyl)amino)-5-((tetrahydro-2H-pyran-4-yl)amino)pyrazolo[1,5-a]pyrimidin-3-yl)-2-methylbenzamide]"
